Each structure is given as a SMILES string. Where two headings read alike, the source gives them in different places.

This note sets out measurements from patent US12624034B2, “Non-covalent modifiers of AKT1 and uses thereof” (Terremoto Biosciences, Inc., priority 2023, dated 2026).

Experiment [1] has as its target T1, AKT1 WT (Homo sapiens, UniProt P31749).
T1 construct: expressed in transfected cells; host or cells: HEK293
Nature of the experiment: Live cell AKT1 WT target engagement by NanoBRET competitive probe displacement in HEK293 cells. The format is binding. The settings on record: 2 h at 37° C., read-out: AKT1 WT IC50. How it is done: (§1) Determining live cell AKT1 E17K, AKT1 WT, and AKT2 target engagement by NanoBRET competitive probe displacement. […] Briefly, HEK293 cells were transfected with plasmids encoding kinase-NanoLuciferase fusion proteins overnight. Cells were then treated with serial dilutions of compound and an ˜EC50 concentration of fluorescently-tagged ATP-competitive tracer (Promega). After incubation for 2 h at 37° C., luciferase substrate and extracellular luciferase inhibitor were added to all wells, and luminescent intensity at 460 nm and 600 nm were measured on a multimode plate-reader. The ratio of E600/E460 was calculated to give the tracer engagement signal (BRET). IC50 values were calculated by fitting BRET values to a log(inhibitor) vs. response Hill equation.

For experiment [2], the target named is T2, AKT2 (Homo sapiens, UniProt P31751).
T2 construct: expressed in transfected cells; host or cells: HEK293
Nature of the experiment: Live cell AKT2 target engagement by NanoBRET competitive probe displacement in HEK293 cells. The format is binding. The settings on record: 2 h at 37° C., read-out: AKT2 IC50. How it is done:
as §1

Where [3] appears, read: NanoBRET competitive probe displacement, live HEK293 cells.
The mark [4] stands for this setting: NanoBRET live cell target engagement, HEK293 cells.

T1 sequence (P31749 whole entry): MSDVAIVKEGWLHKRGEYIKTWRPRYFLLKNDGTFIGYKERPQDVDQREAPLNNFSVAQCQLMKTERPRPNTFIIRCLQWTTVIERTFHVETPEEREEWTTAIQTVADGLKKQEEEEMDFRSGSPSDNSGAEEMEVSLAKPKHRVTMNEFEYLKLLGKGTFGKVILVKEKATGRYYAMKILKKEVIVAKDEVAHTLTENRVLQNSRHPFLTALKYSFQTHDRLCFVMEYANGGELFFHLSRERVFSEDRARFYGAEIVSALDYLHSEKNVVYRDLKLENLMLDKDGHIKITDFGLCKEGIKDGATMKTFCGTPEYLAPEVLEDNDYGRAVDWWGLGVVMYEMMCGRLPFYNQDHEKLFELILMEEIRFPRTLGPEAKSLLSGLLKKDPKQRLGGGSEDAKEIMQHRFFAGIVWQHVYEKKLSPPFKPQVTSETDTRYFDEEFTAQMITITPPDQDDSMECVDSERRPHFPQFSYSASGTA
T2 sequence (P31751 whole entry): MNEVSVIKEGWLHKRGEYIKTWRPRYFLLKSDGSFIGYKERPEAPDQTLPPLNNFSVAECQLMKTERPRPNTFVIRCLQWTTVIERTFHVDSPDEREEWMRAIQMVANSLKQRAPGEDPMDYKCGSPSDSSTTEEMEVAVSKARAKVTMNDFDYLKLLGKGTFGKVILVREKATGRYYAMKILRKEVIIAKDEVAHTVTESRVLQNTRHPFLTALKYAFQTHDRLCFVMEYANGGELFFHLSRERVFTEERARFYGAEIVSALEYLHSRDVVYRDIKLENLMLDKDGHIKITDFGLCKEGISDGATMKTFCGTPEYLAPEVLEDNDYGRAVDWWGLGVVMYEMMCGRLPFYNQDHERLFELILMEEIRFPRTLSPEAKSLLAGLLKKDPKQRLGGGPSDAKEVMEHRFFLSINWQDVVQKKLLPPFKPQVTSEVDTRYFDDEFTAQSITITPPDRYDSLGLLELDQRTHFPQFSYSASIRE

As for `Nc1ncccc1-c1nc2ccc(-n3nccn3)nc2n1-c1ccc2c(c1)CC[C@@H]2NC(=O)c1cnc(C(F)(F)F)s1` [Compound 526], the results for the IC50 in experiment [1] (setting [3]) and in experiment [2] (setting [3]) were 20.2 nM and 1260 nM, respectively.

On to `Cc1ncccc1C(=O)N[C@@H]1c2ccc(-n3c(-c4cccnc4N)nc4ccc(-n5cccn5)nc43)cc2CC1(F)F` [Compound 187], for which the IC50 was 6.73 nM in experiment [1] (setting [4]) and 21.3 nM in experiment [2] (setting [4]).

In the case of `Cc1ccc(C(=O)N[C@H]2CCc3cc(-n4c(-c5cccnc5N)nc5ccc(-n6cnc(C7CC7)n6)nc54)ccc32)cn1` [Compound 419], the figures for the IC50 in experiment [1] (setting [3]) and in experiment [2] (setting [3]) were 35.9 nM and 540 nM, respectively.

With `Nc1ncccc1-c1nc2ccc(-n3cccn3)nc2n1-c1ccc2c(c1)CC[C@@H]2N(C1CC1)C1CCN(C(=O)C2CC2)CC1` [Compound 557], the IC50 came to 15.9 nM in experiment [1] (setting [3]) and 1760 nM in experiment [2] (setting [3]).

Consider `Nc1ncccc1-c1nc2ccc(-n3cccn3)nc2n1-c1ccc2c(c1)CC[C@@H]2NC1COC1` [Compound 111], for which the IC50 in experiment [1] (setting [4]) turned out to be 178 nM; in experiment [2] (setting [4]) it was 4500 nM.

For `Cc1cc(C(=O)N[C@H]2CCc3cc(-n4c(-c5cccnc5N)nc5ccc(-n6cccn6)nc54)ccc32)sn1` [Compound 375], the IC50 in experiment [1] (setting [4]) was determined as 7.52 nM; in experiment [2] (setting [4]), 68.9 nM.

As to `CN1CCN(c2ccn(-c3ccc4nc(-c5cccnc5N)n(-c5ccc6c(c5)CC[C@@H]6NC5CCN(c6ccn(C)n6)CC5)c4n3)n2)CC1` [Compound 598], the IC50 in experiment [1] (setting [3]) came to 3.8 nM; in experiment [2] (setting [3]) it was 40.5 nM.

`Nc1ncccc1-c1nc2ccc(-n3cccn3)nc2n1-c1ccc2c(c1)CC[C@@H]2NC(=O)c1cc(C2CC2)c(O)c(C(F)(F)F)c1` [Compound 415]: the IC50 in experiment [1] (setting [3]) came to 2.96 nM; in experiment [2] (setting [3]), 70 nM.

Turning to `Nc1ncccc1-c1nc2ccc(-n3cccn3)nc2n1-c1ccc2c(c1)CC[C@@H]2NC1CCc2ccncc21` (single isomer, unassigned) [Example 496, (R*)—N—((S)-5-(2-(2-aminopyridin-3-yl)-5-(1H-pyrazol-1-yl)-3H-imidazo[4,5-b]pyridin-3-yl)-2,3-dihydro-1H-inden-1-yl)-6,7-dihydro-5H-cyclopenta[c]pyridin-7-amine], the results for the IC50 in experiment [1] (setting [3]) and in experiment [2] (setting [3]) were 28.2 nM and 1070 nM, respectively.

For the compound `Nc1ncccc1-c1nc2ccc(-n3nccn3)nc2n1-c1ccc2c(c1)CC(F)[C@@H]2NC1CCN(C(=O)C2CC2)CC1` (single isomer, unassigned) [Compound 533], the IC50 in experiment [1] (setting [3]) was > 1000 nM; in experiment [2] (setting [3]) it was 7230 nM.

Consider `COc1cccc(-c2ccc3nc(-c4cccnc4N)n(-c4ccc5c(c4)CC(F)[C@@H]5NC4CCN(C(=O)C5CC5)CC4)c3n2)n1` (stereo partly shown) [Compound 545], for which the IC50 in experiment [1] (setting [3]) was 20.8 nM; in experiment [2] (setting [3]) it was 730 nM.

On to `Nc1ncccc1-c1nc2ccc(-n3cccn3)nc2n1-c1ccc2c(c1)CC[C@@H]2N1Cc2ccncc2C1` [Compound 494], for which the IC50 is 199 nM in experiment [1] (setting [3]) and 6860 nM in experiment [2] (setting [3]).

With `Nc1ncccc1-c1nc2ccc(-n3cccn3)nc2n1-c1ccc2c(c1)CC[C@@H]2NCc1ccc(C(F)F)nc1` [Compound 84], the IC50 in experiment [1] (setting [4]) came to 113 nM; in experiment [2] (setting [4]), 1960 nM.

Consider `COCC#Cc1ccc2nc(-c3cccnc3N)n(-c3ccc4c(c3)CC[C@@H]4NC(=O)c3ccc(C(F)F)nc3)c2n1` [Compound 409], for which the figures for the IC50 in experiment [1] (setting [3]) and in experiment [2] (setting [3]) were 36 nM and 1290 nM, respectively.

On to `Cn1ccc(Oc2ccc3nc(-c4cccnc4N)n(-c4ccc5c(c4)CC[C@@H]5NC(=O)c4cnc(C(F)F)s4)c3n2)n1` [Compound 558], for which the IC50 in experiment [1] (setting [3]) was determined as 71.5 nM; in experiment [2] (setting [3]) it was 7510 nM.

Consider `CC#Cc1ccc2nc(-c3cccnc3N)n(-c3ccc4c(c3)CC[C@@H]4NC(=O)c3ccc(C(F)F)nc3)c2n1` [Compound 405], for which the IC50 in experiment [1] (setting [3]) was found to be 46.2 nM; in experiment [2] (setting [3]), 1580 nM.

Take `Nc1ncc(C(=O)N[C@H]2CCc3cc(-n4c(-c5cccnc5N)nc5ccc(-n6cccn6)nc54)ccc32)cc1F` [Compound 298]: the IC50 was determined as 7.16 nM in experiment [1] (setting [4]) and 51.6 nM in experiment [2] (setting [4]).

For `Nc1ncccc1-c1nc2ccc(C#CC3COC3)nc2n1-c1ccc2c(c1)CC[C@@H]2NC(=O)c1ccc(C(F)F)nc1` [Compound 408], the IC50 in experiment [1] (setting [3]) worked out at 91.1 nM; in experiment [2] (setting [3]) it was 2300 nM.

For the compound `CC(C)(O)c1cn([C@H]2CCc3cc(-n4c(-c5cccnc5N)nc5ccc(-n6cccn6)nc54)ccc32)nn1` [Compound 219], the IC50 in experiment [1] (setting [4]) was 119 nM; in experiment [2] (setting [4]) it was 6640 nM.

Regarding `Nc1ncccc1-c1nc2ccc(-c3ccn(C(F)F)n3)nc2n1-c1ccc2c(c1)CC[C@@H]2NC1CCN(C(=O)C2CC2)CC1` [Compound 434], the IC50 came to 57.7 nM in experiment [1] (setting [3]) and 1300 nM in experiment [2] (setting [3]).

Regarding `Cc1ncccc1C(=O)N[C@H]1CCc2cc(-n3c(-c4cccnc4N)nc4ccc(N5CCOCC5)nc43)ccc21` [Compound 135], the IC50 was 83.1 nM in experiment [1] (setting [4]) and 1110 nM in experiment [2] (setting [4]).

In the case of `CCc1cc(C(=O)N[C@H]2CCc3cc(-n4c(-c5cccnc5N)nc5ccc(-n6cccn6)nc54)ccc32)ccn1` [Compound 204], the figures for the IC50 in experiment [1] (setting [4]) and in experiment [2] (setting [4]) were 9.42 nM and 53.1 nM, respectively.

`Nc1ncccc1-c1nc2ccc(-n3ncc(OC(F)F)n3)nc2n1-c1ccc2c(c1)CC[C@@H]2NC(=O)c1cnc(C(F)F)s1` [Compound 595]: the IC50 stood at 15 nM in experiment [1] (setting [3]) and 520 nM in experiment [2] (setting [3]).

In the case of `CS(=O)(=O)c1ccn(-c2ccc3nc(-c4cccnc4N)n(-c4ccc5c(c4)CC[C@@H]5NC4CCN(C(=O)C5CC5)CC4)c3n2)n1` [Compound 554], the IC50 worked out at 339 nM in experiment [1] (setting [3]) and 9260 nM in experiment [2] (setting [3]).

Turning to `COc1ncn(-c2ccc3nc(-c4cccnc4N)n(-c4ccc5c(c4)CC[C@@H]5NC(=O)c4ccc(C)nc4)c3n2)n1` [Compound 456, (S)—N-(5-(2-(2-aminopyridin-3-yl)-5-(3-methoxy-1H-1,2,4-triazol-1-yl)-3H-imidazo[4,5-b]pyridin-3-yl)-2,3-dihydro-1H-inden-1-yl)-6-methylnicotinamide], the IC50 amounted to 52.3 nM in experiment [1] (setting [3]) and 715 nM in experiment [2] (setting [3]).

As for `Nc1ncccc1-c1nc2ccc(-n3cccn3)nc2n1-c1ccc2c(c1)CC[C@@H]2NC(=O)c1cnc(O)c(F)c1` [Compound 296], the results for the IC50 in experiment [1] (setting [4]) and in experiment [2] (setting [4]) were 56.2 nM and 660 nM, respectively.

Take `Nc1ncccc1-c1nc2ccc(-n3nccn3)nc2n1-c1ccc2c(c1)CC[C@@H]2NC(=O)c1cnc(C(F)F)o1` [Compound 538]: the IC50 in experiment [1] (setting [3]) amounted to 25.1 nM; in experiment [2] (setting [3]), 2910 nM.

Take `Cc1ncncc1C(=O)N[C@H]1CCc2cc(-n3c(-c4cccnc4N)nc4ccc(-n5cccn5)nc43)ccc21` [Compound 117]: the IC50 in experiment [1] (setting [4]) amounted to 5.32 nM; in experiment [2] (setting [4]), 103 nM.

As for `Nc1ncccc1-c1nc2ccc(-n3cccn3)nc2n1-c1ccc2c(c1)CC[C@@H]2NC(=O)c1ccn(C2CC2)n1` [Compound 215], the IC50 was 21.5 nM in experiment [1] (setting [4]) and 381 nM in experiment [2] (setting [4]).

`COc1ccn(-c2ccc3nc(-c4cccnc4N)n(-c4ccc5c(c4)CC(F)[C@@H]5NC4CN(C(=O)C5CC5)C4)c3n2)n1` (stereo partly shown) [Compound 493]: the IC50 in experiment [1] (setting [3]) worked out at 57.6 nM; in experiment [2] (setting [3]), 973 nM.

Turning to `Nc1ncccc1-c1nc2ccc(-n3cccn3)nc2n1-c1ccc2c(c1)CC[C@@H]2NC1CCN(C(=O)[C@H]2C[C@@H]2F)CC1` [Compound 479], the IC50 in experiment [1] (setting [3]) is 89.3 nM; in experiment [2] (setting [3]), > 10000 nM.

In the case of `Cc1coc(-c2ccc3nc(-c4cccnc4N)n(-c4ccc5c(c4)CC[C@@H]5n4ccnn4)c3n2)n1` [Compound 245, (S)-3-(3-(1-(1H-1,2,3-triazol-1-yl)-2,3-dihydro-1H-inden-5-yl)-5-(4-methyloxazol-2-yl)-3H-imidazo[4,5-b]pyridin-2-yl)pyridin-2-amine], the IC50 in experiment [1] (setting [4]) came out at 41.8 nM; in experiment [2] (setting [4]) it was 1960 nM.

Turning to `Nc1ncccc1-c1nc2ccc(-n3cccn3)nc2n1-c1ccc2c(c1)CC[C@@H]2NC1CCc2ccncc21` (single isomer, unassigned) [Example 495, (S*)—N—((S)-5-(2-(2-aminopyridin-3-yl)-5-(1H-pyrazol-1-yl)-3H-imidazo[4,5-b]pyridin-3-yl)-2,3-dihydro-1H-inden-1-yl)-6,7-dihydro-5H-cyclopenta[c]pyridin-7-amine], the IC50 is 9.4 nM in experiment [1] (setting [3]) and 197 nM in experiment [2] (setting [3]).

Take `Nc1ncccc1-c1nc2ccc(-n3cccn3)nc2n1-c1ccc2c(c1)CC[C@@H]2NC(=O)c1ccnc(F)c1` [Compound 295]: the IC50 in experiment [1] (setting [4]) came to 5.59 nM; in experiment [2] (setting [4]), 81.3 nM.

On to `Nc1ncccc1-c1nc2ccc(-n3cccn3)nc2n1-c1ccc2c(c1)CC[C@@H]2NC1CCN(C(=O)C2CC2)C1` (stereo partly shown) [Compound 461], for which the IC50 was found to be 109 nM in experiment [1] (setting [3]) and 3030 nM in experiment [2] (setting [3]).

`Nc1ncccc1-c1nc2ccc(-n3cccn3)nc2n1-c1ccc2c(c1)CC[C@@H]2n1cnnc1Cc1ccccc1` [Compound 169, (S)-3-(3-(1-(3-benzyl-4H-1,2,4-triazol-4-yl)-2,3-dihydro-1H-inden-5-yl)-5-(1H-pyrazol-1-yl)-3H-imidazo[4,5-b]pyridin-2-yl)pyridin-2-amine]: the IC50 turned out to be 12 nM in experiment [1] (setting [4]) and 228 nM in experiment [2] (setting [4]).

Turning to `Nc1ncccc1-c1nc2ccc(-n3cccn3)nc2n1-c1ccc2c(c1)CC[C@@H]2NC(=O)c1cccc(F)c1` [Compound 332], the IC50 in experiment [1] (setting [4]) came to 7.58 nM; in experiment [2] (setting [4]) it was 60.2 nM.

`Cc1nccnc1C(=O)N[C@H]1CCc2cc(-n3c(-c4cccnc4N)nc4ccc(-c5ncco5)nc43)ccc21` [Compound 270]: the IC50 was 535 nM in experiment [1] (setting [4]) and > 10000 nM in experiment [2] (setting [4]).
